Data as given in PMC6692352, “DF2726A, a new IL-8 signalling inhibitor, is able to counteract chemotherapy-induced neuropathic pain” (Scientific Reports, 2019).

Columns and labels:
TRPA1 = assay: Western blot of DRG of oxaliplatin rats, TRPA1; assay type: in vivo, male Wistar rats; settings: 30 mg/kg os
Method: Animals were sacrificed and dorsal root ganglia (DRG) (L4-L6) were removed and stored at […]. They were homogenized on ice-cold lysis buffer [20 mM Tris–HCl (pH 7.5), 10 mM NaF, 150 mM NaCl, 1% Nonidet P-40, 1 mM phenylmethylsulfonyl fluoride, 1 mM Na3VO4, leupeptin and trypsin inhibitor 10 μg/mL; 20 µl/sample, as previously described.
After 1 h, tissue lysates were obtained by centrifugation at 20,000 g for 15 min at 4 °C. Protein concentrations were estimated by the Bio-Rad protein assay using bovine serum albumin as standard.
DRG lysate proteins (30 μg) were dissolved in Laemmli sample buffer, boiled for 5 min, and separated on SDS-polyacrylamide gel elctrophoresis and transferred onto nitrocellulose membrane (240 mA for 40 min at room temperature). […] The protein bands were scanned and densitometrically analyzed with a model GS-700 imaging densitometer (Bio-Rad Laboratories, Milan, Italy). […]

[1] = system: 55 targets among GCPRs, ion channels, enzymes and transporters; settings: binding panel tested at 10 µM; ion channels up to 30 µM
Method: target activities towards a panel of GPCRs, enzymes, ion channels, transporters and nuclear
incubated for 60 min at 22°C with the respective reference compound in the absence or presence of
the test compound in a buffer containing 50 mM Tris-HCl (pH 7.4), 2 mM MgCl2 and 1 mM
EDTA. After incubation, the samples were filtered rapidly under vacuum through glass fiber filters
(GF/B, Packard Instruments, Meriden, CT, USA) presoaked with 0.3% polyethylenimine (PEI) and
rinsed several times with ice-cold 50 mM Tris-HCl using a 96-sample cell harvester (Unifilter,
Packard Instruments). The filters were dried, then counted for radioactivity in a scintillation counter
(Topcount, Packard Instruments) using a scintillation cocktail (Microscint-O, Packard Instruments).
The results were expressed as the percentage inhibition of the control radioligand-specific binding.
The compounds were tested at a single concentration of 10 µM in triplicate.
Tested targets were as follows:
GPCR: A2A (agonist radioligand), α1A (antagonist radioligand), α2A (antagonist radioligand), β1
(agonist radioligand), β2 (agonist radioligand), BK1 (antagonist and agonist radioligand), BK2
(antagonist and agonist radioligand), CB1 (antagonist and agonist radioligand), CB2 (antagonist and […]

[2] = system: spontaneous human polimorphonuclear neutrophil (hPMN) migration; assay: Spontaneous hPMN migration; assay type: cell-based
Text: chemotherapy-induced neuropathic pain”
Benedetti, Antonio Giordano, Annamaria Cimini, Marcello Allegretti.
Chemokines were from PeproTech (London, UK). Chemicals and cell culture reagents were from Sigma Aldrich (Saint Louis, MI, USA).
Cell isolation and culture
L’Aquila, Italy. Ethical clearance was obtained to perform these experiments. Human PMNs were […]
blood cells as previously described 1.
Cell viability, as measured by Trypan Blue dye exclusion, was greater than 98%. […]
microchemotaxis chamber, as previously described 2. Briefly, 25 µl of control medium (PBS for […]
the lower compartment of the chemotaxis chamber. […]
vehicle were seeded in the upper compartment. The two compartments were separated by 5 µm pre-size polycarbonate filter (polyvinylpyrrolidone-free for PMN chemotaxis). The chamber was […]
Physicochemical characterization […]
and a turbidity-sensing device. […]
water/HBSS to a final concentration of 10 μM. Cell membrane homogenates (48 μg protein) were […]

COX2 = COX2 protein western blotting in F11-derived neurons; assay type: cell-based; settings: DF2726A 1 µM + oxaliplatin 20 µM, 24 h
Method: Following neuronal differentiation, neurons were treated for 24 h with DF2726A (1 μM final concentration), oxaliplatin (Sigma-Aldrich; 20 µM final concentration), or the combination of the two molecules.
Control and treated cells were collected and lysed in ice-cold RIPA buffer (PBS pH 7.4 containing 0.5% sodium deoxycolate, 1% Igepal, 0.1% SDS, 5 mM EDTA, 1% protease and phosphatase inhibitor cocktails; Sigma-Aldrich) as described in[22],[33]. Protein lysates (30 μg) were separated on 8–12% SDS-polyacrilamide gel and electroblotted onto polyvinyldifluoride membrane (PVDF; Sigma-Aldrich). Nonspecific binding sites were blocked by 5% non-fat dry milk (Bio-Rad Laboratories, Hercules, CA, USA) in Tris buffered saline (TBS: 20 mM Tris- HCl, pH 7.4, containing 150 mM NaCl) for 30 min at RT. […] The relative densities of immunoreactive bands were determined and normalized HRP-conjugated β-actin, using ImageJ software. […]

P-glycoprotein (P-gp) = target: T1, P-glycoprotein (P-gp) (Homo sapiens, UniProt P08183); assay: P-gp inhibition (Caco-2 cell assay); assay type: in vitro ADME
T1 construct: endogenous in cells; host or cells: Caco-2
T1 sequence (P08183 whole entry): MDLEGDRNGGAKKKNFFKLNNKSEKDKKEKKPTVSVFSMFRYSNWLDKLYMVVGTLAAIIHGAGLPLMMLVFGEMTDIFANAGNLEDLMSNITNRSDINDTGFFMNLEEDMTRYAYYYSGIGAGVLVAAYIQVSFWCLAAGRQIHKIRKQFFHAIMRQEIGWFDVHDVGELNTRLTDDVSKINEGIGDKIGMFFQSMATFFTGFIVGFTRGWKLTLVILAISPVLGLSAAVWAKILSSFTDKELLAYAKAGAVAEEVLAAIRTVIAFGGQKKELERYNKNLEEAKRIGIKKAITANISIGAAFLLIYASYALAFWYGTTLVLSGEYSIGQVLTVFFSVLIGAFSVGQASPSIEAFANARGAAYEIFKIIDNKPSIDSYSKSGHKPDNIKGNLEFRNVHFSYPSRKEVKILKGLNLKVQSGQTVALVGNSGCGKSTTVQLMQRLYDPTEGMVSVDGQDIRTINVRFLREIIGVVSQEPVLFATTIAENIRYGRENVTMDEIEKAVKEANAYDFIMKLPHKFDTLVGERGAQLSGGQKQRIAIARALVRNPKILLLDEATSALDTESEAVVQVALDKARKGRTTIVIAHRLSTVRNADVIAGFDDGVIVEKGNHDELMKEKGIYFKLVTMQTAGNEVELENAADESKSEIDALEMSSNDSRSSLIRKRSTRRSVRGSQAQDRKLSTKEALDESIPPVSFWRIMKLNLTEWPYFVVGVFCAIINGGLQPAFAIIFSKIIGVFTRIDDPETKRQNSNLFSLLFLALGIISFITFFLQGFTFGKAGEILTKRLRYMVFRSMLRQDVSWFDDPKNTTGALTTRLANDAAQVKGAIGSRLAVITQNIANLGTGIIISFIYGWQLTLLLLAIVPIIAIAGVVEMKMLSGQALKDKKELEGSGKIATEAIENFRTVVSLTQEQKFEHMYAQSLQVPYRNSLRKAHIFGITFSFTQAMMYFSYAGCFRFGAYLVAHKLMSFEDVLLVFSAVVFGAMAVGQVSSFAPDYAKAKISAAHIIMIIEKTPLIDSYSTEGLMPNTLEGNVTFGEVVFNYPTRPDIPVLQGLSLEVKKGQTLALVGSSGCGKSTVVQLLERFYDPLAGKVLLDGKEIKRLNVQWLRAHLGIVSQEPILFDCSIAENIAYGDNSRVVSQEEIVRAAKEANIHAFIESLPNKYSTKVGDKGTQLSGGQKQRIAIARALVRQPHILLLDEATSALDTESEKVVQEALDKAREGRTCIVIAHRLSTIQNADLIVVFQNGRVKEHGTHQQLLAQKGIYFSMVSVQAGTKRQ

SMILES: CC(C)(C(=O)O)c1ccc(Nc2nc(C(F)(F)F)cs2)cc1 [DF2726A]
- TRPA1 expression in DRG of oxaliplatin rats (TRPA1): significant reduction in the expression
- Selectivity for 55 targets in counterscreens [1]: > 100 fold
- Inhibition of spontaneous hPMN migration per se [2]: did not inhibit
- COX2 expression levels, oxaliplatin-treated neurons (COX2): comparable to the control
- P-glycoprotein (P-gp) inhibition (P-glycoprotein (P-gp)): no P-glycoprotein (P-gp) inhibition
